Laboratory results from ChEMBL document CHEMBL3769303, “Discovery of membrane active benzimidazole quinolones-based topoisomerase inhibitors as potential DNA-binding antimicrobial agents” (Eur J Med Chem, 2016).
In brackets after ≈: the same amount, converted by molar mass.

Experiments:
Assay type in all cases: functional
[1] = tested on: Shigella dysenteriae; experiment: Antibacterial activity against Shigella dysenteriae by micro broth dilution method
[2] = tested on: Staphylococcus aureus; experiment: Antibacterial activity against methicillin-resistant Staphylococcus aureus N315 by micro broth dilution method
[3] = tested on: Staphylococcus aureus; experiment: Antibacterial activity against Staphylococcus aureus ATCC 25923 by micro broth dilution method
[4] = tested on: Micrococcus luteus; experiment: Antibacterial activity against Micrococcus luteus ATCC 4698 by micro broth dilution method; settings: NCTC 2665
[5] = tested on: Bacillus spizizenii; experiment: Antibacterial activity against Bacillus subtilis ATCC 6633 by micro broth dilution method
[6] = tested on: Escherichia coli; experiment: Antibacterial activity against Escherichia coli DH52 by micro broth dilution method
[7] = tested on: Escherichia coli; experiment: Antibacterial activity against Escherichia coli JM109 by micro broth dilution method
[8] = tested on: Pseudomonas aeruginosa; experiment: Antibacterial activity against Pseudomonas aeruginosa ATCC 27853 by micro broth dilution method
[9] = Antibacterial activity against Bacillus proteus ATCC 13315 by micro broth dilution method
[10] = tested on: Salmonella enterica; experiment: Antibacterial activity against Salmonella enterica ATCC 14028 by micro broth dilution method
[11] = Antifungal activity against Candida mycoderma ATCC 9888 after 24 hrs by micro broth dilution method; settings: Candida vini
[12] = tested on: Cyberlindnera jadinii; experiment: Antifungal activity against Candida utilis ATCC 9950 after 24 hrs by micro broth dilution method; settings: Williopsis jadinii, ATCC 9950, 24 h
[13] = tested on: Aspergillus flavus; experiment: Antifungal activity against Aspergillus flavus ATCC 204304 after 24 hrs by micro broth dilution method; settings: ATCC 204304, 24 h
[14] = tested on: Saccharomyces cerevisiae; experiment: Antifungal activity against Saccharomyces cerevisiae ATCC 9763 after 24 hrs by micro broth dilution method; settings: ATCC 9763, 24 h
[15] = tested on: Candida albicans; experiment: Antifungal activity against Candida albicans ATCC 10231 after 24 hrs by micro broth dilution method; settings: ATCC 10231, 24 h

Structure (SMILES) | MIC [1] [µg/mL] | MIC [2] [µg/mL] | MIC [3] [µg/mL] | MIC [4] [µg/mL] | MIC [5] [µg/mL] | MIC [6] [µg/mL] | MIC [7] [µg/mL] | MIC [8] [µg/mL] | MIC [9] [µg/mL] | MIC [10] [µg/mL] | MIC80 [11] [µg/mL] | MIC80 [12] [µg/mL] | MIC80 [13] [µg/mL] | MIC80 [14] [µg/mL] | MIC80 [15] [µg/mL]
O=C(O)c1cn(C2CC2)c2cc(N3CCN(Cc4nc5ccc(Br)cc5[nH]4)CC3)c(F)cc2c1=O | 16 (≈ 29.6 µM) | 4 (≈ 7.4 µM) | 64 (≈ 118 µM) | 16 (≈ 29.6 µM) | 16 (≈ 29.6 µM) | 8 (≈ 14.8 µM) | 32 (≈ 59.2 µM) | 1 (≈ 1.85 µM) | 8 (≈ 14.8 µM) | 4 (≈ 7.4 µM) | 16 (≈ 29.6 µM) | 4 (≈ 7.4 µM) | 2 (≈ 3.7 µM) | 4 (≈ 7.4 µM) | 2 (≈ 3.7 µM)
O=C(O)c1cn(C2CC2)c2cc(N3CCN(CNc4nc5ccccc5[nH]4)CC3)c(F)cc2c1=O | 0.25 (≈ 0.525 µM) | 0.25 (≈ 0.525 µM) | 1 (≈ 2.1 µM) | 1 (≈ 2.1 µM) | 1 (≈ 2.1 µM) | 1 (≈ 2.1 µM) | 4 (≈ 8.39 µM) | 0.5 (≈ 1.05 µM) | 1 (≈ 2.1 µM) | 1 (≈ 2.1 µM) | 0.5 (≈ 1.05 µM) | 8 (≈ 16.8 µM) | 16 (≈ 33.6 µM) | 4 (≈ 8.39 µM) | 1 (≈ 2.1 µM)
OC(Cn1cncn1)(Cn1cncn1)c1ccc(F)cc1F [FLUCONAZOLE] | – | – | – | – | – | – | – | – | – | – | 4 (≈ 13.1 µM) | 8 (≈ 26.1 µM) | 256 (≈ 836 µM) | 16 (≈ 52.2 µM) | 1 (≈ 3.27 µM)
CCn1c(CN2CCN(c3cc4c(cc3F)c(=O)c(C(=O)O)cn4C3CC3)CC2)nc2ccccc21 | 8 (≈ 16.3 µM) | 128 (≈ 261 µM) | 256 (≈ 523 µM) | 2 (≈ 4.09 µM) | 0.5 (≈ 1.02 µM) | 2 (≈ 4.09 µM) | 128 (≈ 261 µM) | 2 (≈ 4.09 µM) | 0.5 (≈ 1.02 µM) | 0.5 (≈ 1.02 µM) | 2 (≈ 4.09 µM) | 2 (≈ 4.09 µM) | 4 (≈ 8.17 µM) | 128 (≈ 261 µM) | 2 (≈ 4.09 µM)
CCCCCCCCCCn1c(CN2CCN(c3cc4c(cc3F)c(=O)c(C(=O)O)cn4CC)CC2)nc2ccccc21 | 8 (≈ 13.6 µM) | 8 (≈ 13.6 µM) | 32 (≈ 54.3 µM) | 16 (≈ 27.1 µM) | 4 (≈ 6.78 µM) | 0.5 (≈ 0.848 µM) | 32 (≈ 54.3 µM) | 4 (≈ 6.78 µM) | 8 (≈ 13.6 µM) | 8 (≈ 13.6 µM) | 8 (≈ 13.6 µM) | 4 (≈ 6.78 µM) | 4 (≈ 6.78 µM) | 4 (≈ 6.78 µM) | 16 (≈ 27.1 µM)
CCn1cc(C(=O)O)c(=O)c2cc(F)c(N3CCN(Cc4nc5ccccc5n4Cc4ccc([N+](=O)[O-])cc4)CC3)cc21 | 4 (≈ 6.84 µM) | 8 (≈ 13.7 µM) | 4 (≈ 6.84 µM) | 4 (≈ 6.84 µM) | 2 (≈ 3.42 µM) | 16 (≈ 27.4 µM) | 8 (≈ 13.7 µM) | 4 (≈ 6.84 µM) | 16 (≈ 27.4 µM) | 4 (≈ 6.84 µM) | 16 (≈ 27.4 µM) | 4 (≈ 6.84 µM) | 8 (≈ 13.7 µM) | 4 (≈ 6.84 µM) | 4 (≈ 6.84 µM)
CCCCCCCCn1c(CN2CCN(c3cc4c(cc3F)c(=O)c(C(=O)O)cn4C3CC3)CC2)nc2ccccc21 | 4 (≈ 6.97 µM) | 1 (≈ 1.74 µM) | 16 (≈ 27.9 µM) | 1 (≈ 1.74 µM) | 32 (≈ 55.8 µM) | 0.5 (≈ 0.872 µM) | 2 (≈ 3.49 µM) | 1 (≈ 1.74 µM) | 0.5 (≈ 0.872 µM) | 4 (≈ 6.97 µM) | 1 (≈ 1.74 µM) | 2 (≈ 3.49 µM) | 1 (≈ 1.74 µM) | 16 (≈ 27.9 µM) | 1 (≈ 1.74 µM)
COC(=O)c1cn(C2CC2)c2cc(N3CCN(/C=N\c4nc5ccccc5[nH]4)CC3)c(F)cc2c1=O | 8 (≈ 16.4 µM) | 64 (≈ 131 µM) | 32 (≈ 65.5 µM) | 4 (≈ 8.19 µM) | 2 (≈ 4.09 µM) | 8 (≈ 16.4 µM) | 8 (≈ 16.4 µM) | 2 (≈ 4.09 µM) | 4 (≈ 8.19 µM) | 4 (≈ 8.19 µM) | 16 (≈ 32.8 µM) | 8 (≈ 16.4 µM) | 4 (≈ 8.19 µM) | 2 (≈ 4.09 µM) | 32 (≈ 65.5 µM)
CCn1cc(C(=O)O)c(=O)c2cc(F)c(N3CCN(Cc4nc5ccccc5n4CC)CC3)cc21 | 128 (≈ 268 µM) | 8 (≈ 16.8 µM) | 128 (≈ 268 µM) | 4 (≈ 8.38 µM) | 2 (≈ 4.19 µM) | 4 (≈ 8.38 µM) | 32 (≈ 67 µM) | 32 (≈ 67 µM) | 1 (≈ 2.09 µM) | 0.5 (≈ 1.05 µM) | 0.25 (≈ 0.524 µM) | 8 (≈ 16.8 µM) | 32 (≈ 67 µM) | 64 (≈ 134 µM) | 4 (≈ 8.38 µM)
CCCn1c(CN2CCN(c3cc4c(cc3F)c(=O)c(C(=O)O)cn4CC)CC2)nc2ccccc21 | 32 (≈ 65.1 µM) | 16 (≈ 32.5 µM) | 256 (≈ 521 µM) | 8 (≈ 16.3 µM) | 2 (≈ 4.07 µM) | 32 (≈ 65.1 µM) | 128 (≈ 260 µM) | 32 (≈ 65.1 µM) | 128 (≈ 260 µM) | 16 (≈ 32.5 µM) | 2 (≈ 4.07 µM) | 32 (≈ 65.1 µM) | 32 (≈ 65.1 µM) | 32 (≈ 65.1 µM) | 32 (≈ 65.1 µM)
NC1CCN(c2c(F)cc3c(=O)c(C(=O)O)cn(C4CC4)c3c2Cl)C1 (stereo not drawn) [CLINAFLOXACIN] | 0.5 (≈ 1.37 µM) | 1 (≈ 2.73 µM) | 0.5 (≈ 1.37 µM) | 0.5 (≈ 1.37 µM) | 0.5 (≈ 1.37 µM) | 0.5 (≈ 1.37 µM) | 0.5 (≈ 1.37 µM) | 0.5 (≈ 1.37 µM) | 0.5 (≈ 1.37 µM) | 0.25 (≈ 0.683 µM) | – | – | – | – | –
O=C(O)c1cn(C2CC2)c2cc(N3CCNCC3)c(F)cc2c1=O [CIPROFLOXACIN] | 2 (≈ 6.04 µM) | 2 (≈ 6.04 µM) | 0.5 (≈ 1.51 µM) | 2 (≈ 6.04 µM) | 2 (≈ 6.04 µM) | – | – | 1 (≈ 3.02 µM) | 2 (≈ 6.04 µM) | 1 (≈ 3.02 µM) | – | – | – | – | –
